According to patent US7384733B1, “Interface patch clamping” (Xention Discovery Limited, priority 1998, dated 2008):

Target: potassium currents (Kv1.1) in MK1 cell (Mus musculus, UniProt P16388)
Conditions: TEA 5 mM in extracellular solution in the dish, then washing; FIG. 21
Description: The solution may be exchanged readily by perfusion of the dish and this allows multiple drug additions and dose response curves to be obtained while recording from the one cell.
The holding potential was −60 mV and (a) and (b) show outward potassium currents (Kv1.1) in response to a voltage step to +30 mV.

Sequence of potassium currents (Kv1.1) in MK1 cell (P16388 whole entry): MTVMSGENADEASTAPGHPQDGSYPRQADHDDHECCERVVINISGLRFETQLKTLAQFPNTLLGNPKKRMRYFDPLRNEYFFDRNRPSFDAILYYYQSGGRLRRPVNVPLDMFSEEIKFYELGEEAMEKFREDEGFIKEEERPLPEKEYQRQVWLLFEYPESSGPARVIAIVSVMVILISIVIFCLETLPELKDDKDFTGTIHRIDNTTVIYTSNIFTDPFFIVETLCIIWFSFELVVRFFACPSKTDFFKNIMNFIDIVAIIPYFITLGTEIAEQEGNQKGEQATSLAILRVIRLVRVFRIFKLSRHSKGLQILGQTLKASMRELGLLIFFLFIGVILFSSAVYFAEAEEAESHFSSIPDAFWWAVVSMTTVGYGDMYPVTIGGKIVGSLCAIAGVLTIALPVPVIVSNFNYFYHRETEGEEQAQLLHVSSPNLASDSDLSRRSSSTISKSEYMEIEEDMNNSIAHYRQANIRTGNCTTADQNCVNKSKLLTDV

CC[N+](CC)(CC)CC [TEA, tetraethylammonium]
effect on the potassium current recorded from MK1 cell in whole cell recording mode: blocking effect of TEA was reversed by washing
